Test results published in US20050209278A1, “Piperidinyl- and piperazinyl-sulfonylmethyl hydroxamic acids and their use as protease inhibitors” (priority 2002, published 2005).
Values joined by “and” are separate entries in the source; they are usually repeats but may differ in a detail not shown here. Equal values may be shown once.

Biological target: T1, MMP-14 (Homo sapiens, UniProt P50281)
T1 construct: The catalytic domain enzyme was expressed in E. coli inclusion bodies, solubilized in urea; made in house
Assay: In vitro MMP inhibition, Ki determination (fluorogenic substrate II)
Format: biochemical
Details: value outside parentheses; read-out: MMP-14 Ki
How it was run: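 Apparent Ki was fitted with Morrison's equation from reaction rates at a single low enzyme level. Enzyme was APMA- or trypsin-activated refolded MMP-14 catalytic domain, buffered at pH 7.5 with 10 mM CaCl2.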

SMILES | Ki
CCc1ccc(C2CCN(S(=O)(=O)C3(C(=O)NO)CCN(CCOC)CC3)CC2)s1 [Example 314] | 1310 nM
O=C(NO)C1(S(=O)(=O)N2CCC(N3CCN(c4ccc(Cl)cc4)CC3)CC2)CCOCC1 [Example 315] | > 10000 nM
O=C(NO)C1(S(=O)(=O)N2CCN(c3ccc(-c4ccc(F)cc4F)cn3)CC2)CCOCC1 [Example 316] | 910 nM
O=C(NO)C1(S(=O)(=O)N2CCN(c3ccc(-c4ccccc4F)cn3)CC2)CCOCC1 [Example 317] | 653 nM
COc1ccccc1-c1ccc(N2CCN(S(=O)(=O)C3(C(=O)NO)CCOCC3)CC2)nc1 [Example 318] | 1490 nM
O=C(NO)C1(S(=O)(=O)N2CCN(c3ccc(-c4cccc(OC(F)(F)F)c4)cn3)CC2)CCOCC1 [Example 319] | > 10000 nM
O=C(NO)C1(S(=O)(=O)N2CCN(c3ccc(CCCC(F)(F)F)cc3)CC2)CCOCC1 [Example 320] | 3930 nM
O=C(NO)C1(S(=O)(=O)N2CCN(c3cnn(CCCC(F)(F)F)c(=O)c3)CC2)CCOCC1 [Example 321] | > 10000 nM
O=C(NO)C1(S(=O)(=O)N2CCN(c3cnn(-c4ccccc4)c(=O)c3)CC2)CCOCC1 [Example 322] | > 10000 nM
CCCCc1ccc(C2CCN(S(=O)(=O)C3(C(=O)NO)CCOCC3)CC2)nc1 [Example 323] | 1290 nM
COC(=O)c1ccc(N2CCN(S(=O)(=O)C3(C(=O)NO)CCOCC3)CC2)cc1 [Example 324] | 1150 nM
CCCCOc1ccc(N2CCN(S(=O)(=O)C3(C(=O)NO)CCN(CCOC)CC3)CC2)nc1 [Example 325] | 912 nM
O=C(NO)C1(S(=O)(=O)N2CCN(c3ccc(OCC(F)(F)C(F)F)cc3)CC2)CCOCC1 [Example 326] | 2430 nM
O=C(NO)C1(S(=O)(=O)N2CCN(c3ccc(-c4ccc(OC(F)(F)F)cc4)cc3)CC2)CCOCC1 [Example 327] | 1370 nM
O=C(NO)C1(S(=O)(=O)N2CCN(c3ccc(-c4ccc(Cl)c(Cl)c4)cc3)CC2)CCOCC1 [Example 328] | 2690 nM
O=C(NO)C1(S(=O)(=O)N2CCN(c3cnn(-c4ccccc4)c(=O)c3Cl)CC2)CCOCC1 [Example 329] | > 10000 nM
O=C(NO)C1(S(=O)(=O)N2CCC(c3ccc(OCC(F)(F)C(F)(F)F)cc3)CC2)CCOCC1 [Example 330] | > 10000 nM
O=C(NO)C1(S(=O)(=O)N2CCN(c3ccc(Br)cn3)CC2)CCOCC1 [Example 331] | 13.5 nM
COCCN1CCC(C(=O)NO)(S(=O)(=O)N2CCN(c3ncccn3)CC2)CC1 [Example 332] | > 10000 nM
O=C(NO)C1(S(=O)(=O)N2CCN(c3ccc(OCC4CC4)c(F)c3)CC2)CCOCC1 [Example 333] | 2360 nM
CCCCc1cnc(N2CCN(S(=O)(=O)C3(C(=O)NO)CCN(CCOC)CC3)CC2)nc1 [Example 334] | 5770 nM
O=C(NO)C1(S(=O)(=O)N2CCN(c3ccc(CCC(F)(F)C(F)(F)F)cc3)CC2)CCN(C2CC2)CC1 [Example 335] | 9290 nM
O=C(NO)C1(S(=O)(=O)N2CCN(c3ccc(OCC(F)(F)C(F)F)cc3)CC2)CCOCC1 [Example 336] | 2520 nM
O=C(NO)C1(S(=O)(=O)N2CCC(c3ccc(OC(F)(F)C(F)F)cc3)CC2)CCOCC1 [Example 337] | 1610 nM
O=C(NO)C1(S(=O)(=O)N2CCC(c3ccc(CCCC(F)(F)F)cn3)CC2)CCOCC1 [Example 338] | 1330 nM

SMILES | Ki
O=C(NO)C1(S(=O)(=O)N2CCC(c3ccc(CCC(F)(F)C(F)(F)F)cn3)CC2)CCOCC1 [Example 340] | 1300 nM
CCN1CCC(C(=O)NO)(S(=O)(=O)N2CCN(c3ccc(-c4ccccc4)c(F)c3)CC2)CC1 [Example 341] | 4300 nM
O=C(NO)C1(S(=O)(=O)N2CCN(c3ccc(OCCCC(F)(F)F)cc3)CC2)CC(O)C1 (stereo not drawn) [Example 342] | > 10000 nM
O=C(NO)C1(S(=O)(=O)N2CCN(c3ncc(-c4ccc(Cl)cc4)s3)CC2)CCOCC1 [Example 343] | 34.9 nM
Cc1ccc(-c2cnc(N3CCN(S(=O)(=O)C4(C(=O)NO)CCOCC4)CC3)s2)cc1 [Example 344] | 75 nM
O=C(NO)C1(S(=O)(=O)N2CCN(c3ncc(-c4ccc(F)cc4)s3)CC2)CCOCC1 [Example 345] | 38.1 nM
O=C(NO)C1(S(=O)(=O)N2CCN(c3ncc(-c4ccc(C(F)(F)F)cc4)s3)CC2)CCOCC1 [Example 346] | 114 nM
CC(C)(C)c1ccc(-c2cnc(N3CCN(S(=O)(=O)C4(C(=O)NO)CCOCC4)CC3)s2)cc1 [Example 347] | 84.6 nM
Cc1ccccc1-c1cnc(N2CCN(S(=O)(=O)C3(C(=O)NO)CCOCC3)CC2)s1 [Example 348] | 650 nM
O=C(NO)C1(S(=O)(=O)N2CCC(c3ccc(OC(F)(F)C(F)(F)F)cc3)CC2)CCOCC1 [Example 349] | > 10000 nM
O=C(NO)C1(S(=O)(=O)N2CCC(c3ccc(OCC(F)(F)C(F)F)cc3)CC2)CCN(C2CC2)CC1 [Example 350] | 4470 nM
O=C(NO)C1(S(=O)(=O)N2CCC(c3ccc(CCCC(F)(F)F)cc3)CC2)CCN(C2CC2)CC1 [Example 351] | 4740 nM
O=C(O)c1ccc(N2CCN(S(=O)(=O)C3(C(=O)NO)CCOCC3)CC2)cc1 [Example 352] | > 10000 nM
O=C(NO)C1(S(=O)(=O)N2CCC(c3ccc(CCCC(F)(F)F)cc3)CC2)CCOCC1 [Example 353] | 2710 nM
CCCCOc1cccc(N2CCN(S(=O)(=O)C3(C(=O)NO)CCOCC3)CC2)c1 [Example 354] | 4140 nM
O=C(NO)C1(S(=O)(=O)N2CCN(c3cccc(OCCCC(F)(F)F)c3)CC2)CCOCC1 [Example 355] | 3440 nM
CCCCCc1cccc(N2CCN(S(=O)(=O)C3(C(=O)NO)CCOCC3)CC2)c1 [Example 356] | 3420 nM
O=C(NO)C1(S(=O)(=O)N2CCC(c3ccc(OCC(F)(F)F)cc3)CC2)CCOCC1 [Example 357] | 2290 nM
O=C(NO)C1(S(=O)(=O)N2CCN(c3ccc(CCCC(F)(F)F)cn3)CC2)CCOCC1 [Example 358] | 2950 nM
O=C(NO)C1(S(=O)(=O)N2CCN(c3ncc(-c4ccc(F)cc4F)s3)CC2)CCOCC1 [Example 359] | 42.9 nM
O=C(NO)C1(S(=O)(=O)N2CCN(c3ncc(-c4ccc(-c5ccccc5)cc4)s3)CC2)CCOCC1 [Example 360] | 216 nM
O=C(NO)C1(S(=O)(=O)N2CCN(c3ncc(/C=C/c4ccccc4)s3)CC2)CCOCC1 [Example 361] | 497 nM and 460 nM
O=C(NO)C1(S(=O)(=O)N2CCN(c3ncc(-c4ccc5c(c4)OCO5)s3)CC2)CCOCC1 [Example 362] | 150 nM
O=C(NO)C1(S(=O)(=O)N2CCN(c3ncc(-c4ccc([N+](=O)[O-])cc4)s3)CC2)CCOCC1 [Example 363] | 27.8 nM
O=C(NO)C1(S(=O)(=O)N2CCN(c3ncc(-c4ccc(OC(F)(F)F)cc4)s3)CC2)CCOCC1 [Example 364] | 69.7 nM

SMILES | Ki
O=C(NO)C1(S(=O)(=O)N2CCN(c3ncc(-c4cccc(-c5ccccc5)c4)s3)CC2)CCOCC1 [Example 365] | > 10000 nM
CC(C)c1ccc(-c2cnc(N3CCN(S(=O)(=O)C4(C(=O)NO)CCOCC4)CC3)s2)cc1 [Example 366] | 50.3 nM
O=C(NO)C1(S(=O)(=O)N2CCC(c3ccc(CCC(F)(F)F)cn3)CC2)CCOCC1 [Example 367] | 3290 nM
O=C(NO)C1(S(=O)(=O)N2CCN(c3ncc(-c4ccc(O)cc4)s3)CC2)CCOCC1 [Example 368] | 180 nM
O=C(NO)C1(S(=O)(=O)N2CCN(c3ncc(-c4ccc(Cl)c(Cl)c4)s3)CC2)CCOCC1 [Example 369] | 343 nM
Cc1cccc(-c2cnc(N3CCN(S(=O)(=O)C4(C(=O)NO)CCOCC4)CC3)s2)c1 [Example 370] | 341 nM
COc1ccc(-c2cnc(N3CCN(S(=O)(=O)C4(C(=O)NO)CCOCC4)CC3)s2)cc1OC [Example 371] | 1590 nM
O=C(NO)C1(S(=O)(=O)N2CCN(c3ccc(-c4ccccc4)cn3)CC2)CCOCC1 [Example 372] | 462 nM and 470 nM
O=C(NO)C1(S(=O)(=O)N2CCC(COCc3ccccc3)CC2)CCOCC1 [Example 373] | 79.7 nM
CCC=C1CCN(S(=O)(=O)C2(C(=O)NO)CCOCC2)CC1 [Example 374] | 195 nM
O=C(NO)C1(S(=O)(=O)N2CCC(COCC(F)(F)C(F)F)CC2)CCOCC1 [Example 375] | 2860 nM
O=C(NO)C1(S(=O)(=O)N2CCC(COCC(F)(F)C(F)(F)F)CC2)CCOCC1 [Example 376] | 3120 nM
O=C(NO)C1(S(=O)(=O)N2CCC(COCC(F)(F)C(F)(F)C(F)(F)F)CC2)CCOCC1 [Example 377] | > 10000 nM
O=C(NO)C1(S(=O)(=O)N2CCC(COCC(F)(F)C(F)(F)C(F)(F)C(F)F)CC2)CCOCC1 [Example 378] | > 10000 nM
CCCCc1ccc(-c2cnc(N3CCN(S(=O)(=O)C4(C(=O)NO)CCOCC4)CC3)s2)cc1 [Example 379] | 283 nM
CCCCCc1ccc(-c2cnc(N3CCN(S(=O)(=O)C4(C(=O)NO)CCOCC4)CC3)s2)cc1 [Example 380] | 3210 nM
CCc1ccc(-c2cnc(N3CCN(S(=O)(=O)C4(C(=O)NO)CCOCC4)CC3)s2)cc1 [Example 381] | 54.1 nM
O=C(NO)C1(S(=O)(=O)N2CCN(c3ncc(-c4cccnc4)s3)CC2)CCOCC1 [Example 382] | 778 nM
NC(=O)c1ccccc1-c1cnc(N2CCN(S(=O)(=O)C3(C(=O)NO)CCOCC3)CC2)s1 [Example 383] | > 10000 nM
N#Cc1cccc(-c2cnc(N3CCN(S(=O)(=O)C4(C(=O)NO)CCOCC4)CC3)s2)c1 [Example 384] | 867 nM
O=C(NO)C1(S(=O)(=O)N2CCC(c3ccc(OCC(F)(F)C(F)F)cc3)CC2)CCN(CCN2CCOCC2)CC1 [Example 385] | 2930 nM
O=C(NO)C1(S(=O)(=O)N2CCN(c3ccc(CCCC(F)(F)F)cc3F)CC2)CCOCC1 [Example 386] | > 10000 nM
O=C(NO)C1(S(=O)(=O)N2CCN(c3ncc(-c4ccccn4)s3)CC2)CCOCC1 [Example 387] | 4550 nM
CCCCc1ccc(C2CCN(S(=O)(=O)C3(C(=O)NO)CCNCC3)CC2)nc1 [Example 388] | > 10000 nM
O=C(NO)C1(S(=O)(=O)N2CCN(c3ccc(CCCC(F)(F)F)c(F)c3)CC2)CCOCC1 [Example 389] | 3170 nM
